Test results: PubChem BioAssay (NCI)
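Briefly, cells in 96-well plates were exposed to five compound concentrations for 48 h, and endpoints were estimated by linear interpolation. GI50 = concentration required for 50% inhibition of growth. Definition used: TGI = concentration required for complete inhibition of growth.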

Legend:
Test in all cases: NCI anticancer screen, dose series, 48 h
ACHN renal = tested on: ACHN renal
HCT-15 colon = tested on: HCT-15 colon
HL-60(TB) leukemia = tested on: HL-60(TB) leukemia
IGROV1 ovarian = tested on: IGROV1 ovarian
LOX IMVI melanoma = tested on: LOX IMVI melanoma
NCI-H522 lung = tested on: NCI-H522 lung
RXF 393 renal = tested on: RXF 393 renal
UO-31 renal = tested on: UO-31 renal
CAKI-1 renal = tested on: CAKI-1 renal
OVCAR-4 ovarian = tested on: OVCAR-4 ovarian

c1ccc(OCCSCCCCCCCCCCSCCOc2ccccc2)cc1
TGI (ACHN renal): > 100 µM
TGI (HCT-15 colon): > 100 µM
TGI (HL-60(TB) leukemia): > 100 µM
TGI (IGROV1 ovarian): > 100 µM
TGI (LOX IMVI melanoma): > 100 µM
TGI (NCI-H522 lung): > 100 µM
TGI (RXF 393 renal): > 100 µM
TGI (UO-31 renal): > 100 µM

O=P(O)(O)CN1CCNCCN(CP(=O)(O)O)CCNCC1
TGI (ACHN renal): > 100 µM
TGI (CAKI-1 renal): > 100 µM
TGI (HCT-15 colon): > 100 µM
TGI (HL-60(TB) leukemia): 15.2 µM
TGI (IGROV1 ovarian): > 51.2 µM
TGI (LOX IMVI melanoma): > 100 µM
TGI (NCI-H522 lung): > 100 µM
TGI (OVCAR-4 ovarian): > 100 µM
TGI (RXF 393 renal): > 100 µM
TGI (UO-31 renal): > 100 µM

COc1cc(-n2cc(-c3cc(O)c(C/C=C(\C)CCC=C(C)C)c(O)c3)nn2)cc2c1O[C@]1(C)CC[C@@H](O)C(C)(C)[C@H]1C2
GI50 (ACHN renal): 1.79 µM
TGI (ACHN renal): 26.6 µM
GI50 (CAKI-1 renal): 0.43 µM
TGI (CAKI-1 renal): > 100 µM
GI50 (HCT-15 colon): 1.08 µM
TGI (HCT-15 colon): 9.7 µM
GI50 (HL-60(TB) leukemia): 0.0655 µM
TGI (HL-60(TB) leukemia): 3.88 µM
GI50 (IGROV1 ovarian): 1.85 µM
TGI (IGROV1 ovarian): 28.5 µM
GI50 (LOX IMVI melanoma): 0.186 µM
TGI (LOX IMVI melanoma): 1.09 µM
GI50 (NCI-H522 lung): 1.19 µM
TGI (NCI-H522 lung): 4.35 µM
GI50 (OVCAR-4 ovarian): 3.13 µM
TGI (OVCAR-4 ovarian): 41.6 µM
GI50 (RXF 393 renal): 0.0214 µM
TGI (RXF 393 renal): 0.337 µM
GI50 (UO-31 renal): 0.365 µM
TGI (UO-31 renal): 1.96 µM

Nc1ncc(/C=N/O)c(NCC2(CO)CC(CCc3ccccc3)C2)n1 (stereo unspecified)
TGI (CAKI-1 renal): > 100 µM
TGI (HCT-15 colon): 29.9 µM
TGI (HL-60(TB) leukemia): 28 µM
TGI (IGROV1 ovarian): 31.2 µM
TGI (LOX IMVI melanoma): 22.3 µM
TGI (NCI-H522 lung): 20.9 µM
TGI (OVCAR-4 ovarian): 48.5 µM
TGI (RXF 393 renal): 29 µM
TGI (UO-31 renal): 26.9 µM

O=CNNC(=O)Nc1ccc(Cl)cc1
TGI (ACHN renal): > 100 µM
TGI (HCT-15 colon): > 100 µM
TGI (HL-60(TB) leukemia): > 100 µM
TGI (IGROV1 ovarian): > 100 µM
TGI (OVCAR-4 ovarian): > 100 µM
TGI (RXF 393 renal): > 100 µM
TGI (UO-31 renal): > 100 µM

COC(=O)/C=C/c1ccc2c(c1)CC1(Cc3ccccc3C1)C2
TGI (ACHN renal): > 100 µM
TGI (HCT-15 colon): > 100 µM
TGI (HL-60(TB) leukemia): 67.3 µM
TGI (IGROV1 ovarian): > 100 µM
TGI (LOX IMVI melanoma): > 100 µM
TGI (NCI-H522 lung): > 100 µM
TGI (OVCAR-4 ovarian): > 100 µM
TGI (RXF 393 renal): > 100 µM
TGI (UO-31 renal): > 100 µM

Cc1cc(S(=O)(=O)O)c(NC(=O)c2oc3cc(O)ccc3c(=O)c2C)cc1Cl
TGI (ACHN renal): > 100 µM
TGI (CAKI-1 renal): > 100 µM
TGI (HCT-15 colon): > 100 µM
TGI (IGROV1 ovarian): > 100 µM
TGI (LOX IMVI melanoma): > 100 µM
TGI (NCI-H522 lung): > 100 µM
TGI (OVCAR-4 ovarian): > 100 µM
TGI (RXF 393 renal): > 100 µM
TGI (UO-31 renal): > 100 µM

O=S1(=O)OCCOS(=O)(=O)C1Cc1nc2ccccc2[nH]1
TGI (ACHN renal): > 100 µM
TGI (CAKI-1 renal): 95.4 µM
TGI (HCT-15 colon): > 100 µM
TGI (HL-60(TB) leukemia): 88.4 µM
TGI (LOX IMVI melanoma): 38.1 µM
TGI (OVCAR-4 ovarian): > 100 µM
TGI (UO-31 renal): > 100 µM

C=C1CC(Cn2cc(Br)c(=O)[nH]c2=O)(c2ccc(-c3ccccc3)cc2)OC1=O (stereo unspecified)
TGI (ACHN renal): 3.24 µM
TGI (CAKI-1 renal): 4.41 µM
TGI (HCT-15 colon): 3.8 µM
TGI (IGROV1 ovarian): 2.96 µM
TGI (LOX IMVI melanoma): 2.61 µM
TGI (NCI-H522 lung): 2.55 µM
TGI (OVCAR-4 ovarian): 4.64 µM
TGI (UO-31 renal): 3.93 µM

O=C(c1ccco1)C1CC(c2ccc3ccccc3c2O)=NN1c1ccc([N+](=O)[O-])cc1[N+](=O)[O-] (stereo unspecified)
TGI (ACHN renal): > 100 µM
TGI (CAKI-1 renal): > 100 µM
TGI (HCT-15 colon): > 100 µM
TGI (IGROV1 ovarian): > 100 µM
TGI (NCI-H522 lung): 47.5 µM
TGI (OVCAR-4 ovarian): > 100 µM
TGI (RXF 393 renal): > 100 µM
TGI (UO-31 renal): > 100 µM

c1ccc([P+](c2ccccc2)(c2ccccc2)c2ccc([P+](c3ccccc3)(c3ccccc3)c3ccccc3)cc2)cc1
TGI (ACHN renal): > 100 µM
TGI (CAKI-1 renal): > 100 µM
TGI (HCT-15 colon): > 100 µM
TGI (HL-60(TB) leukemia): > 100 µM
TGI (IGROV1 ovarian): > 100 µM
TGI (LOX IMVI melanoma): > 100 µM
TGI (NCI-H522 lung): > 100 µM
TGI (RXF 393 renal): > 100 µM
TGI (UO-31 renal): > 100 µM

Cc1ccc(S(=O)(=O)N/N=C2\C3CC4CC(C3)C2C4)cc1 (stereo unspecified)
TGI (CAKI-1 renal): > 100 µM
TGI (HCT-15 colon): > 100 µM
TGI (HL-60(TB) leukemia): > 100 µM
TGI (IGROV1 ovarian): > 100 µM
TGI (LOX IMVI melanoma): > 100 µM
TGI (NCI-H522 lung): > 100 µM
TGI (OVCAR-4 ovarian): > 100 µM
TGI (RXF 393 renal): > 100 µM
TGI (UO-31 renal): > 100 µM

CCOC(=O)c1nc2ccccc2nc1NCc1ccc(Cl)cc1Cl
TGI (ACHN renal): > 100 µM
TGI (CAKI-1 renal): > 100 µM
TGI (HCT-15 colon): > 100 µM
TGI (IGROV1 ovarian): > 100 µM
TGI (LOX IMVI melanoma): > 100 µM
TGI (NCI-H522 lung): > 100 µM
TGI (OVCAR-4 ovarian): > 100 µM
TGI (RXF 393 renal): > 100 µM
TGI (UO-31 renal): > 100 µM

O=C1OI(C#Cc2ccccc2)c2ccccc21
TGI (ACHN renal): 5.42 µM
TGI (CAKI-1 renal): 6.5 µM
TGI (HCT-15 colon): 11.2 µM
TGI (HL-60(TB) leukemia): 7.82 µM
TGI (IGROV1 ovarian): 6.17 µM
TGI (LOX IMVI melanoma): > 100 µM
TGI (OVCAR-4 ovarian): 12.3 µM
TGI (RXF 393 renal): 97.5 µM
TGI (UO-31 renal): 14.3 µM

CCOC(=O)CCCn1cc(C(=O)OC)nn1
TGI (ACHN renal): > 100 µM
TGI (CAKI-1 renal): > 100 µM
TGI (HCT-15 colon): > 100 µM
TGI (IGROV1 ovarian): > 100 µM
TGI (LOX IMVI melanoma): > 100 µM
TGI (OVCAR-4 ovarian): > 100 µM
TGI (RXF 393 renal): > 100 µM
TGI (UO-31 renal): > 100 µM

CC12CC(C/C1=N/O)C(C)(C)C2 (stereo unspecified)
TGI (ACHN renal): > 100 µM
TGI (CAKI-1 renal): > 100 µM
TGI (HL-60(TB) leukemia): > 100 µM
TGI (IGROV1 ovarian): > 100 µM
TGI (NCI-H522 lung): > 100 µM
TGI (OVCAR-4 ovarian): > 100 µM
TGI (RXF 393 renal): > 100 µM
TGI (UO-31 renal): > 100 µM

C=C[C@@](C)(/C=C/c1ccc(O)cc1)CCC=C(C)C
TGI (ACHN renal): 22.4 µM
TGI (CAKI-1 renal): 32.6 µM
TGI (HCT-15 colon): 32.7 µM
TGI (HL-60(TB) leukemia): 29.7 µM
TGI (IGROV1 ovarian): 30.5 µM
TGI (LOX IMVI melanoma): 32.2 µM
TGI (NCI-H522 lung): 30.9 µM
TGI (OVCAR-4 ovarian): 28.6 µM
TGI (UO-31 renal): 32.4 µM

[N-]=[N+]=C(C(=O)C(=[N+]=[N-])C(=O)c1ccccc1)C(=O)c1ccccc1
TGI (ACHN renal): > 100 µM
TGI (HCT-15 colon): > 100 µM
TGI (HL-60(TB) leukemia): > 100 µM
TGI (IGROV1 ovarian): > 100 µM
TGI (LOX IMVI melanoma): > 100 µM
TGI (NCI-H522 lung): > 100 µM
TGI (RXF 393 renal): > 100 µM
TGI (UO-31 renal): > 100 µM

CC(C)(C)c1c(C(C)(C)C)c(=O)c1=O
TGI (ACHN renal): > 100 µM
TGI (CAKI-1 renal): > 100 µM
TGI (HCT-15 colon): > 100 µM
TGI (HL-60(TB) leukemia): > 100 µM
TGI (LOX IMVI melanoma): > 100 µM
TGI (OVCAR-4 ovarian): > 100 µM
TGI (RXF 393 renal): > 100 µM
TGI (UO-31 renal): > 100 µM

Nc1c(N=Nc2ccc(-c3ccc(N=Nc4c(O)ccc5cc(S(=O)(=O)O)cc(S(=O)(=O)O)c45)cc3)cc2)c(S(=O)(=O)O)cc2cc(S(=O)(=O)O)c(N=Nc3ccccc3)c(O)c12
TGI (HCT-15 colon): > 100 µM
TGI (HL-60(TB) leukemia): > 100 µM
TGI (IGROV1 ovarian): > 100 µM
TGI (LOX IMVI melanoma): > 100 µM
TGI (NCI-H522 lung): > 100 µM
TGI (OVCAR-4 ovarian): > 100 µM
TGI (RXF 393 renal): > 100 µM

COc1cccc(CN(C(=O)/C=C\Sc2ccccc2)C(C)(C)C)c1
TGI (ACHN renal): > 100 µM
TGI (CAKI-1 renal): > 100 µM
TGI (HCT-15 colon): > 100 µM
TGI (HL-60(TB) leukemia): > 100 µM
TGI (IGROV1 ovarian): > 100 µM
TGI (LOX IMVI melanoma): > 100 µM
TGI (OVCAR-4 ovarian): > 100 µM
TGI (UO-31 renal): > 100 µM

N#CCCC1(CCC#N)CCCCCCC(CCC#N)(CCC#N)C(O)C1O (stereo unspecified)
TGI (ACHN renal): > 100 µM
TGI (CAKI-1 renal): > 100 µM
TGI (HCT-15 colon): > 100 µM
TGI (IGROV1 ovarian): > 100 µM
TGI (LOX IMVI melanoma): > 100 µM
TGI (NCI-H522 lung): > 100 µM
TGI (OVCAR-4 ovarian): > 100 µM
TGI (RXF 393 renal): > 100 µM
TGI (UO-31 renal): > 100 µM
